In PubChem BioAssay (NCI):
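Exposure lasted 48 hours, with cells grown in 96-well plates and compounds tested at five concentrations. GI50: concentration for 50% inhibition of growth. TGI: concentration producing complete growth inhibition.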

Tests used:
Experiment in all cases: NCI tumour cell line growth inhibition, 48 h
CAKI-1 renal = tested on: CAKI-1 renal
CCRF-CEM leukemia = tested on: CCRF-CEM leukemia
DU-145 prostate = tested on: DU-145 prostate
HL-60(TB) leukemia = tested on: HL-60(TB) leukemia
HOP-62 NSCLC = tested on: HOP-62 NSCLC
HS 578T breast = tested on: HS 578T breast
LOX IMVI melanoma = tested on: LOX IMVI melanoma
OVCAR-8 ovarian = tested on: OVCAR-8 ovarian
PC-3 prostate = tested on: PC-3 prostate
SF-295 CNS = tested on: SF-295 CNS

SMILES | TGI (CAKI-1 renal) [µM] | TGI (CCRF-CEM leukemia) [µM] | TGI (DU-145 prostate) [µM] | TGI (HL-60(TB) leukemia) [µM] | TGI (HOP-62 NSCLC) [µM] | TGI (HS 578T breast) [µM] | TGI (LOX IMVI melanoma) [µM] | TGI (OVCAR-8 ovarian) [µM] | TGI (PC-3 prostate) [µM] | TGI (SF-295 CNS) [µM] | GI50 (CAKI-1 renal) [µM] | GI50 (CCRF-CEM leukemia) [µM] | GI50 (DU-145 prostate) [µM] | GI50 (HL-60(TB) leukemia) [µM] | GI50 (HOP-62 NSCLC) [µM] | GI50 (HS 578T breast) [µM] | GI50 (LOX IMVI melanoma) [µM] | GI50 (OVCAR-8 ovarian) [µM] | GI50 (PC-3 prostate) [µM] | GI50 (SF-295 CNS) [µM]
CS(=O)(=O)OCCCNCCCOS(C)(=O)=O | 4280 | 3130 | 6440 | 2540 | 6030 | 8170 | 3920 | 6630 | 5620 | 4760 |  |  |  |  |  |  |  |  |  | 
c1ccc(OCCC[P+](c2ccccc2)(c2ccccc2)c2ccccc2)cc1 | 27.9 | 18.1 | 19.6 | 0.832 | 42.8 | 28.4 | 6.75 | 12.8 | 6.17 | 7.77 | 10.1 | 1.85 | 3.19 | 0.285 | 4.55 | 2.69 | 2.18 | 1.83 | 0.58 | 1.97
O=C(NCC(F)(F)F)Nc1cccc(-c2cnc3cc(-c4ccc(F)cc4)ccn23)c1 |  | > 82.7 | > 100 | 24.7 | > 86.3 | > 100 | 11.2 | 33.6 | > 100 | 6.97 | 1.05 | 1.25 | 3.91 | 0.58 | 1.51 | 0.733 | 0.727 | 2.83 | 2.22 | 0.737
O=C(O)/C(Cc1ccnc2ccccc12)=N\O | > 100 | > 100 | > 100 | > 100 | > 100 | > 100 | > 100 | > 100 | > 100 | > 100 |  |  |  |  |  |  |  |  |  | 
O=C1CSC(c2ccccc2Cl)N1c1nnc(Cn2cnnc2)o1 (configuration not stated) | > 100 | > 100 | 44.3 | 8.67 | 44.6 | 60.9 | 21 | > 100 | > 100 | 19.5 | 11.4 | 5.83 | 19.7 | 2.69 | 17.6 | 8.62 | 7.43 | 30.2 | 11.6 | 3.38
C#Cc1cccc(Nc2nc(Cl)nc3cc(NC(=O)CCl)ccc23)c1 | 5.17 | 2.47 | 2.8 | 7.27 | 5.32 | 9.17 | 0.809 | 2.65 | 4.71 | 7.33 | 1.85 | 0.588 | 0.806 | 1.42 | 1.99 | 1.43 | 0.41 | 0.754 | 1.05 | 3.89
Cn1cc(C2=C(c3c[nH]c4ccccc34)C(=O)NC2=O)c2ccccc21 | > 25 |  | > 25 | 6.35 | > 25 | > 25 | > 25 | > 25 | > 25 |  | 0.523 | 0.264 | 2.37 | 0.871 | 0.585 | 0.151 | 1.3 | 1.51 | 3.91 | 0.201
CC(C)N(Cc1ccc(CN(C(=O)CCl)C(C)C)cc1)C(=O)CCl | 3.39 | 0.865 | 12.4 | 4.96 | 2.37 | 16.8 | 1.05 | 6.43 | 5.48 | 3.88 | 1.77 | 0.287 | 3.23 | 1.95 | 0.856 | 2.75 | 0.29 | 2.08 | 2.27 | 1.81
NC(=O)c1ccc(Oc2nccc(-c3c(-c4ccc(F)cc4)ncn3C3CCNCC3)n2)cc1 | > 25 | > 25 | > 25 | > 25 | > 25 | > 25 | > 25 | > 25 | > 25 | > 25 | > 25 | > 25 | > 25 | > 25 | > 25 | > 9.72 | > 25 | > 25 | > 25 | > 25
O=C1/C(=C/c2ccc(F)cc2)CN(C(=O)CCN2CCC(=NO)CC2)C/C1=C\c1ccc(F)cc1 | 3.92 | > 57.6 | 5.17 | 7.95 | 6.02 | 6.51 | 0.922 | 5.58 | 2.97 | 4.72 | 1.57 | 0.514 | 2.26 | 2.26 | 2.34 | 1.71 | 0.409 | 1.3 | 0.855 | 2.06
O=C(NC(=O)c1c(Cl)nc2sccn12)Nc1ccc(Cl)cc1 | > 100 | > 100 | > 100 | > 100 | 43.3 | 62.9 | > 100 | > 100 | > 56.2 | 70.2 |  |  |  |  |  |  |  |  |  | 
